pIC50: −log10 of the molar value. Where two headings read alike, the source gives them in different places.
Experiments:
c-Src = c-Src (Homo sapiens, UniProt P12931); test: In vitro kinase filter binding assay, c-Src; type: biochemical
Protocol: (§1) Preparation of Enzymes and Kinase Assays. In vitro enzyme assays using EGF-R (McGlynn et al. 1992a), Abl (Geissler et al. 1992), and c-Src (Geissler et al. 1990) protein tyrosine kinases were performed in 96-well plates as a filter binding assay. Briefly, EGF-R intracellular kinase domain (EGF-R-ICD) was assayed in 20 mM Tris-HCl, pH 7.5, 10 mM MnCl2, 10 μM Na3VO4, 1 mM DTT, 0.1 μCi/assay [γ-^33P]ATP, 0.4 μM ATP, 2 μ/ml poly(Glu,Tyr 4:1) (Sigma P275), 1% DMSO, and 30 ng EGF-R-ICD in a total volume of 30 μl. […] Src kinase (60 μg/ml) was preactivated with 50 μM ATP for 10 min at room temperature, and kinase inhibition was measured in 20 mM Tris-HCl, pH 7.5, 10 mM MgCl2, 10 μM Na3VO4, 1 mM DTT, 0.1 μCi/assay (=30 μl ) [γ-^33P]ATP, 20 μM ATP, 25 μg/ml poly(Glu,Tyr 4:1), 1% DMSO, and 10 ng c-Src enzyme.
(§2) GST-fused kinase domains of Kdr, Flt-1, Flk, Tek, c-Met, and c-Kit were expressed in baculovirus and purified over glutathione-Sepharose. Kinase inhibition was measured by detecting the decrease in phosphorylation of poly(Glu,Tyr 4:1) essentially as previously described for EGF-R. Each kinase was incubated under optimized buffer conditions in 20 mM Tris-HCl, pH 7.5, 1–3 mM MnCl2, 3–10 mM MgCl2, 10 μM Na3VO4, 1 mM DTT, 0.2 μCi/[γ-^33P]ATP, 1–8 μM ATP, 3–8 μg/ml poly(Glu,Tyr 4:1), 1% DMSO in a total volume of 30 μl in the presence or absence of PKI166 for 10 min at ambient temperature. […]

c-Abl = target: T1, c-Abl (Homo sapiens, UniProt P00519); test: In vitro kinase filter binding assay, c-Abl kinase domain; type: biochemical; details: c-Abl tyrosine kinase
T1 construct: The His-tagged kinase domain of c-Abl was cloned and expressed in the baculovirus/Sf9 system; His; made in house; host or cells: baculovirus/Sf9
T1 sequence (P00519 242-493 limits assumed): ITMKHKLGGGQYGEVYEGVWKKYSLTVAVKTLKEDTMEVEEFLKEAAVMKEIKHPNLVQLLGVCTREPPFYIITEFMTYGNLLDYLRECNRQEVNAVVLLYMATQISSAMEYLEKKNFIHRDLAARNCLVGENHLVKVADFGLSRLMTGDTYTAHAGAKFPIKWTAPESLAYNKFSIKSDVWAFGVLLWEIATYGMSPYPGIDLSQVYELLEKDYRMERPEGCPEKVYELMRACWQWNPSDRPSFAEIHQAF
Protocol: as §1, §2

c-Met = target: T2, c-Met (Homo sapiens, UniProt P08581); test: GST-fused kinase domain assay, c-Met; type: biochemical
T2 construct: GST-fused kinase domains of Kdr, Flt-1, Flk, Tek, c-Met, and c-Kit were expressed in baculovirus; GST; made in house
T2 sequence (P08581 1078-1345 limits assumed): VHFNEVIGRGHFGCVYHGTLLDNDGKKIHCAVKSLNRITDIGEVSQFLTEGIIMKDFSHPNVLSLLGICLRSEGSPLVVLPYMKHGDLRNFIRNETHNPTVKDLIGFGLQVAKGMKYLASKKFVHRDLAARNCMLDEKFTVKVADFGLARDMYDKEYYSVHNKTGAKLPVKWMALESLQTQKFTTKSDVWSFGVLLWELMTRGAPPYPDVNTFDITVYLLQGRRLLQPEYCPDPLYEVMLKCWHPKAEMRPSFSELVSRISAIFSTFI
Protocol: GST-fused kinase domains of Kdr, Flt-1, Flk, Tek, c-Met, and c-Kit were expressed in baculovirus and purified over glutathione-Sepharose. Kinase inhibition was measured by detecting the decrease in phosphorylation of poly(Glu,Tyr 4:1) essentially as previously described for EGF-R. Each kinase was incubated under optimized buffer conditions in 20 mM Tris-HCl, pH 7.5, 1–3 mM MnCl2, 3–10 mM MgCl2, 10 μM Na3VO4, 1 mM DTT, 0.2 μCi/[γ-^33P]ATP, 1–8 μM ATP, 3–8 μg/ml poly(Glu,Tyr 4:1), 1% DMSO in a total volume of 30 μl in the presence or absence of PKI166 for 10 min at ambient temperature. Reactions were terminated by adding 10 μl of 250 mM EDTA, and the reaction mixture was transferred onto an Immobilon-PVDG membrane (Millipore, Bedford, Mass.). Following a washing (0.5% H3PO4), a soaking in EtOH, and drying, filters were counted in a liquid scintillation counter. IC50 values for PKI166 were calculated by linear regression analysis of the percentage inhibition. Inhibition of Cdc2/cyclin B protein kinase (Arion et al. 1988; Partanen et al. 1991) and PKC (McGlynn et al. 1992b) was assayed as previously described.

EGF-R = target: T3, EGF-R (Homo sapiens, UniProt P00533); test: Western blot analysis of EGF-R autophosphorylation in L3.6pl cells; type: cell-based; details: 60 min pretreatment, 0.01–0.5 μM, then EGF
T3 construct: endogenous in cells; host or cells: L3.6pl human pancreatic cancer cells
T3 sequence (P00533 25-1210): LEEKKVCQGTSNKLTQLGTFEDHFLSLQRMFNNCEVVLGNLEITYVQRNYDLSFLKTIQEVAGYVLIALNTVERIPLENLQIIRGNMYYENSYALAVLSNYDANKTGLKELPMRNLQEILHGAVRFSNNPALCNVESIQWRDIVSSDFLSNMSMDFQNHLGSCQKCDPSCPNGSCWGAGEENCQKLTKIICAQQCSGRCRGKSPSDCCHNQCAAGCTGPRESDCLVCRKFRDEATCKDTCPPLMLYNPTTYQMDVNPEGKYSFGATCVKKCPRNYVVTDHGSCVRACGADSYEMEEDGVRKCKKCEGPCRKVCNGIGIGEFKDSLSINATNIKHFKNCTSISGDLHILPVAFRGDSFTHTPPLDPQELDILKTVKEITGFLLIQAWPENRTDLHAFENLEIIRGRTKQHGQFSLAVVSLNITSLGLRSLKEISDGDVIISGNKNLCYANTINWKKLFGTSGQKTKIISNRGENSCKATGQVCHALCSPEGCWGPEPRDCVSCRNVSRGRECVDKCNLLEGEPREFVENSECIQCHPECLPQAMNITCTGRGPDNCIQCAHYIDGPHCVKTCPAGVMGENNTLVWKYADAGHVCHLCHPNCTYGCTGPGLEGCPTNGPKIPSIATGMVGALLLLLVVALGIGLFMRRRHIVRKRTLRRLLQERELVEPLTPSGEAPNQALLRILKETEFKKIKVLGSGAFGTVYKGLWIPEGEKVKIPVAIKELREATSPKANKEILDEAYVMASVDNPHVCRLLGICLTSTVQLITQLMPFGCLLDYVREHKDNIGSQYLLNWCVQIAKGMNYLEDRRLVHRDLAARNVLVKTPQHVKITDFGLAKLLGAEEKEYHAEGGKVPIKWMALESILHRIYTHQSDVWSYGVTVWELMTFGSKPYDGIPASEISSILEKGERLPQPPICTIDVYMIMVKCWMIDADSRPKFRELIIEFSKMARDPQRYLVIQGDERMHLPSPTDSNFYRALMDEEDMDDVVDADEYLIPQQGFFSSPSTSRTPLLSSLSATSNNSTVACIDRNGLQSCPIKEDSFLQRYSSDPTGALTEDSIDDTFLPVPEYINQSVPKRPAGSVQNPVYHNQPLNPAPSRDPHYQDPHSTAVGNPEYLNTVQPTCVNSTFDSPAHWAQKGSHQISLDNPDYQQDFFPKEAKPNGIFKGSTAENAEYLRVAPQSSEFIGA
Protocol: Western Blot Analysis of EGF-R Autophosphorylation following Treatment with PKI166. […] without 40 ng/ml rhEGF for 10 min, washed, and scraped into PBS containing 5 mM EDTA and 1 mM Na Orthovanadate, and centrifuged, and the pellet resuspended in lysis buffer (20 mM Tris-HCl, pH 8.0, 137 mM NaCl, 10% glycerol, 2 mM EDTA, 1 mM phenylmethylsulfonyl fluoride, 20 μM leupeptin, and 0.15 U/ml aprotinin) sonicated, and centrifuged to recover […] protein. Immunoprecipitation was performed using Mab anti-EGF-R (clone EGF-RI) as described previously (Perrotte et al. 1999; Parker et al. 1998). Immunoprecipitates were analyzed on 7.5% NaDodSO4-PAGE and transferred onto 0.45-μm nitrocellulose membranes. The filters were blocked with 3% bovine serum albumin in TDS (20 mM Tris-HCl, pH 7.5, 150 mM NaCl), probed with either polyclonal sheep anti-human EGF-R (1:1000) or monoclonal anti-phosphotyrosine (Mab 4G10) (1:2000) in TTBS (0.1% Tween 20 in TBS), and incubated with horseradish peroxidase-conjugated donkey anti-sheep IgG (1:2000) (Sigma Immunochemicals, St. Louis, Mo.) or sheep anti-mouse IgG (1:2000), respectively, in TTBS. Protein bands were visualized by ECL detection system. For an additional experiment, serum-starved L3.6pl cells were treated with gemcitabine (10 nM) with or without PKI166 (0.05, 0.5 μM) for 1 h, and then incubated with or without rhEGF (40 ng/ml) for 10 min. […]

VEGF = test: In vitro expression of VEGF by L3.6pl cells (ELISA); type: cell-based, human; details: 72 h, 1 μM PKI166 or 10 nM gemcitabine, control 1400 pg/ml
Protocol: (§3) In vitro Expression of VEGF and IL-8. L3.6pl cells (2000 cells/38 mm^2 well) were plated into 96-well plates in 200 μl supplemented DMEM containing 5% FBS for 24 h, and then treated with 0.05, 0.5, or 1 μM PKI166. Supplemented DMEM (5% FBS) and human IgG (10 μg/ml) served as controls. Seventy-two hours later, the culture supernatants were collected, and the level of VEGF and IL-8 proteins (corrected for cell number) were determined by Quantikine ELISA kits.

IL-8 = test: In vitro expression of IL-8 by L3.6pl cells (ELISA); type: cell-based, human; details: 72 h, 1 μM PKI166 or 10 nM gemcitabine, control 1440 pg/ml
Protocol: as §3

c-Src, sequence (P12931 whole entry, species assumed, the tested form may be a part): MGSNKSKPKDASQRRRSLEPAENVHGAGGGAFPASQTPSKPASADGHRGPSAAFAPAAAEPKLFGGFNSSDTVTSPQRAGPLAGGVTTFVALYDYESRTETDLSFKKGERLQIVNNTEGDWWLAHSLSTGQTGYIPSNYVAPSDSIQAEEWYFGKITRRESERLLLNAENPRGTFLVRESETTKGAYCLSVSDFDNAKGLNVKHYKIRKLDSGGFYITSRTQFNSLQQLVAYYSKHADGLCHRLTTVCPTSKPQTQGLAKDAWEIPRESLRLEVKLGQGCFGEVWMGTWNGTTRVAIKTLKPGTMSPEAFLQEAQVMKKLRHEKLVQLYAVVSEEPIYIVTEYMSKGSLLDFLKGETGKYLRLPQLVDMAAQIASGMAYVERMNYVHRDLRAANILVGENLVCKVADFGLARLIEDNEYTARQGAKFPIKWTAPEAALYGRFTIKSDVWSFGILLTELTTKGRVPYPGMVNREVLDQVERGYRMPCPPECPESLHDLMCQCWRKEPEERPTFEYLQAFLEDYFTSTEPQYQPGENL

`C[C@@H](Nc1ncnc2[nH]c(-c3ccc(O)cc3)cc12)c1ccccc1` [PKI166, 4-(R)-phenethylamino-6-(hydroxyl) phenyl-7H-pyrrolo[2.3-d]-pyrimidine] showed a pIC50 (c-Src) of 6.99, a pIC50 (c-Src; text) of 6.89 and a pIC50 (c-Abl) of 7.55. The pIC50 (c-Met) was under 6.00, the “Inhibition of EGF-stimulated EGF-R autophosphorylation” value (EGF-R) was “inhibited the autophosphorylation in a dose-dependent manner” and the “VEGF in culture supernatant” value (VEGF) was 180 pg/mL. For the same compound, the “IL-8 in culture supernatant” value (IL-8) was 640 pg/mL.

From patent US7344829B2, “Methods for detecting the efficacy of anticancer treatments” (Board of Regents, the University of Texas System, priority 2000, dated 2008)
